PubChem BioAssay (NCI)
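All cell lines were grown in 96-well plates and treated with compound for 48 hours. The concentration for full growth arrest is given as TGI.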 Where a SMILES comes first, the peptide text is derived from it. [ ]: non-standard residue; d: D form. The star is where a group is joined. hSer = N[CH](CCO)C(=O)O; Boc = CC(C)(C)OC(=O)*

Assays:
Assay in all cases: inhibition of tumour cell growth, NCI panel, 48 h
ACHN renal = system: ACHN renal
NCI/ADR-RES ovarian = system: NCI/ADR-RES ovarian
U251 CNS = system: U251 CNS
SK-MEL-2 melanoma = system: SK-MEL-2 melanoma
SF-268 CNS = system: SF-268 CNS
CCRF-CEM leukemia = system: CCRF-CEM leukemia
NCI-H460 lung = system: NCI-H460 lung
SK-MEL-5 melanoma = system: SK-MEL-5 melanoma
RPMI-8226 leukemia = system: RPMI-8226 leukemia
M14 melanoma = system: M14 melanoma

SMILES | TGI (ACHN renal) [µM] | TGI (NCI/ADR-RES ovarian) [µM] | TGI (U251 CNS) [µM] | TGI (SK-MEL-2 melanoma) [µM] | TGI (SF-268 CNS) [µM] | TGI (CCRF-CEM leukemia) [µM] | TGI (NCI-H460 lung) [µM] | TGI (SK-MEL-5 melanoma) [µM] | TGI (RPMI-8226 leukemia) [µM] | TGI (M14 melanoma) [µM]
CCOC(=O)CC(C)C(C#N)(OP1(=O)OC(c2ccccc2)C(C)N1C)c1ccccc1 (stereo not given) | > 100 | > 100 | > 100 | > 100 | > 100 | > 100 | > 100 | > 100 | > 100 | > 100
CC1C(c2ccc(N(C)C)cc2)c2cc3c(cc2OC1N1CCCC1)OCO3 (stereo not given) | > 100 | > 94.1 | > 100 | > 82.6 | > 100 | > 100 | > 95.3 | > 100 | 97.5 | > 100
C=C(NC(=O)C(=C)NC(=O)c1csc(C2=NC3c4csc(n4)C4NC(=O)c5csc(n5)C(C(C)(O)C(C)O)NC(=O)C5CSC(=N5)/C(=C/C)NC(=O)C(C(C)O)NC(=O)c5csc(n5)C3(CC2)NC(=O)C(C)NC(=O)C(=C)NC(=O)C(=C)NC(=O)C(C(C)C)NC2C=Cc3c(C(C)O)cc(nc3C2O)C(=O)OC4C)n1)C(N)=O (stereo not given) | > 61.2 | > 100 | > 40.2 | > 38.9 | > 100 | 6.8 | 59.7 | > 100 | 13.6 | > 28.5
CCC1(O)C=CC(=O)C=C1 | 49 | > 66.8 | 34.9 | > 100 | 52 | > 100 | > 83.2 | > 100 | > 100 | 40.4
O=c1c2cc([N+](=O)[O-])ccc2n2n1Cc1ccccc1CC2 | > 100 | > 100 | > 100 | > 100 | > 100 | > 100 | > 100 | > 100 | > 100 | > 100
O=C(Cc1ccc(Cl)c(Cl)c1)NCCCN1CCN(CCCN2CCCCC2)CC1 | 60.2 | > 100 | 32.5 | 21.6 | 50.4 | 34 | 33.6 | 22.1 | 16.3 | 43.1
O=S(=O)(O)c1ccc(NN(c2c(O)ccc3ccccc23)S(=O)(=O)O)cc1 | > 100 | > 100 | > 100 | > 100 | > 100 | > 100 | > 100 | > 100 | > 100 | > 100
CN1CC(c2ccccc2)=Cc2c1ccc(N)c2N=N | > 100 | > 100 | > 100 | > 100 | > 100 | > 100 | > 100 | > 100 | > 100 | > 100
COCCC(NC(=O)C(CC(C)C)NC(=O)OC(C)(C)C)C(N)=O (stereo not drawn) (Boc-Leu-[hSer](Me)-NH2; configuration not given here) | > 100 | > 100 | > 100 | > 100 | > 100 | > 100 | > 100 | > 100 | > 100 | > 100
COc1ccc(NC(=S)NN=C(C)c2cccc(C(C)=NNC(=S)Nc3ccc(OC)cc3)n2)cc1 | > 100 | > 100 | > 100 | > 100 | > 100 | > 100 | > 100 | > 100 | > 100 | > 100
c1cc(-c2cscc2-c2ccsc2)cs1 | > 100 | > 100 | > 100 | 28.4 | > 100 | > 100 | > 100 | > 100 | > 100 | > 100
COc1cc2c(cc1OC)C(=O)N(c1ccc(O)cc1)C2 | > 100 | > 100 | > 100 | > 100 | > 100 | > 100 | > 100 | > 100 | > 100 | > 100
COc1ccc(C2SCC(=O)N2N=C2NC(=O)CC(=O)N2)cc1 (stereo not given) | > 100 | > 100 | > 100 | > 100 | > 100 | > 100 | > 100 | > 100 | > 100 | > 100
COC1/C=C\C=C(/C)C(=O)NC2=CC(=O)C(NCCCl)=C(CC(C)CC(OC)C(O)C(C)/C=C(/C)C1OC(N)=O)C2=O (stereo not given) | 10.2 | 31.1 | 4.14 | 2.15 | 14 | 21.9 | 2.52 | 3.11 | 31.4 | 2.48
COc1ccc2c(c1O)-c1c(OC)c(OC)cc3c1[C@H](C2)[N+](C)(C)CC3 | > 100 | > 100 | > 100 | > 100 | > 100 | > 100 | > 100 | > 100 | > 100 | > 100
CC(=O)N[C@@H](Cc1ccc(O)cn1)C(=O)NCc1cccc(F)c1 | > 100 | > 100 | > 100 | > 100 | > 100 | > 100 | > 100 | > 100 | > 100 | > 100
COc1ccc(C2CC(c3cc4c(C)c(C(=O)c5ccccc5)oc4cc3O)=Nc3ccccc3S2)cc1OC (stereo not given) | > 100 | > 100 | > 100 | > 100 | > 100 | > 100 | > 100 | > 100 | > 100 | > 100
